Laboratory results as given in ChEMBL document CHEMBL3792344, “Synthesis, molecular properties prediction and anticancer, antioxidant evaluation of new edaravone derivatives” (Bioorg Med Chem Lett, 2016).
Values after ≈ are worked out from the molar mass of the structure shown.

How the values were obtained:
[1] = Cytotoxicity against HEK293T cells assessed as inhibition of cell viability at 25 uM after 48 hrs by MTT assay relative to control; type: cell-based, HEK-293T; conditions: human, read-out: INH
[2] = Antioxidant activity assessed as DPPH free radical scavenging activity incubated for 30 mins in dark condition by spectrophotometric method; type: physicochemical
[3] = test system: A549; assay: Cytotoxicity against human A549 cells assessed as inhibition of cell viability at 25 uM after 48 hrs by MTT assay relative to control; type: functional; conditions: A549, 48 h
[4] = Cytotoxicity against human PC3 cells assessed as inhibition of cell viability at 25 uM after 48 hrs by MTT assay relative to control; type: functional; conditions: PC-3, 48 h
[5] = Cytotoxicity against HEK293T cells assessed as inhibition of cell viability after 48 hrs by MTT assay; type: cell-based; conditions: Homo sapiens, HEK-293T
[6] = Cytotoxicity against human PC3 cells assessed as inhibition of cell viability after 48 hrs by MTT assay; type: functional, cell-based; conditions: PC-3, 48 h

IC50 [2] [µg/mL] | Compound | cytotoxicity at 48 h, 25 µM [1] [%] | inhibition at 25 µM [3] [%] | inhibition at 25 µM [4] [%] | IC50 [5] [nM] | IC50 [6] [nM]
32.2 (≈ 122 µM) | COc1c(-c2ccccc2)c(C)nn1-c1ccccc1 | 28.2 | 65.7 | 16.2 |  | 
28.42 (≈ 80.9 µM) | COc1ccc(CNC(=O)c2c(C)nn(-c3ccccc3)c2OC)cc1 | 44.3 | 60.9 | 34.6 |  | 
36.96 (≈ 138 µM) | COc1c(Br)c(C)nn1-c1ccccc1 | 5.96 | 30.8 | 6.38 |  | 
16.27 (≈ 70.1 µM) | COc1c(C(=O)O)c(C)nn1-c1ccccc1 | 12.1 | 22.1 | 3.19 |  | 
24.98 (≈ 84.9 µM) | COc1ccc(-c2c(C)nn(-c3ccccc3)c2OC)cc1 | 46.3 | 70.7 | 24.3 |  | 
18.6 (≈ 66.8 µM) | COc1c(-c2ccc(C)cc2)c(C)nn1-c1ccccc1 | 19.7 | 44 | 18.5 |  | 
53.56 (≈ 170 µM) | COc1c(-c2ccc3ccccc3c2)c(C)nn1-c1ccccc1 | 53.6 | 71 | 27.6 |  | 
26.4 (≈ 94.8 µM) | COc1c(-c2cccc(C)c2)c(C)nn1-c1ccccc1 | 70.5 | 85.9 | 59.3 |  | 
49.18 (≈ 261 µM) | COc1cc(C)nn1-c1ccccc1 | 23 | 55.8 | 5.91 |  | 
37.03 (≈ 132 µM) | COc1c(-c2ccc(O)cc2)c(C)nn1-c1ccccc1 | 5.58 | 55.9 | 4.9 |  | 
35.97 (≈ 127 µM) | COc1c(-c2ccc(F)cc2)c(C)nn1-c1ccccc1 | 40.9 | 63.9 | 46.3 |  | 
50.67 (≈ 158 µM) | COc1c(-c2csc3ccccc23)c(C)nn1-c1ccccc1 | 55 | 73.5 | 32.4 |  | 
23.63 (≈ 73.5 µM) | COc1c(C(=O)NCc2ccccc2)c(C)nn1-c1ccccc1 | 22.2 | 46.7 | 8.71 |  | 
20.05 (≈ 65 µM) | COCc1ccccc1-c1c(C)nn(-c2ccccc2)c1OC | 56.5 | 80.5 | 36 |  | 
16.07 (≈ 45.2 µM) | COc1c(C(=O)NCc2ccc(Cl)cc2)c(C)nn1-c1ccccc1 | 49.4 | 87 | 45.8 |  | 
41.98 (≈ 145 µM) | COc1c(-c2ccc(C#N)cc2)c(C)nn1-c1ccccc1 | 57.8 | 54.7 | 30.2 |  | 
26.98 (≈ 80.4 µM) | COc1c(C(=O)NC(C)c2ccccc2)c(C)nn1-c1ccccc1 (stereo not drawn) | 31.8 | 52.7 | 29.7 |  | 
38.99 (≈ 120 µM) | COc1ccc(-c2c(C)nn(-c3ccccc3)c2OC)c(OC)c1 | 48.1 | 74.7 | 33 |  | 
30.08 (≈ 111 µM) | COc1c(-c2ccsc2)c(C)nn1-c1ccccc1 | 22.2 | 40 | 36.6 |  | 
8.09 (≈ 45.9 µM) | O=C1O[C@H]([C@@H](O)CO)C(O)=C1O [ASCORBIC ACID] |  |  |  |  | 
 | COc1cccc2c1C(=O)c1c(O)c3c(c(O)c1C2=O)C[C@@](O)(C(=O)CO)C[C@@H]3O[C@H]1C[C@H](N)[C@H](O)[C@H](C)O1 [DOXORUBICIN] |  |  |  | 1200 | 2100
54.4 (≈ 312 µM) | CC1=NN(c2ccccc2)C(=O)C1 [EDARAVONE] | 2.4 | 19.2 | 1.43 |  | 
